For this experiment, the target named is T1, ER (Homo sapiens, UniProt P03372).
T1 construct: transfected in MCF7 cells (containing endogenous ER); endogenous in cells; host or cells: MCF7 cells
T1 sequence (P03372 1-595): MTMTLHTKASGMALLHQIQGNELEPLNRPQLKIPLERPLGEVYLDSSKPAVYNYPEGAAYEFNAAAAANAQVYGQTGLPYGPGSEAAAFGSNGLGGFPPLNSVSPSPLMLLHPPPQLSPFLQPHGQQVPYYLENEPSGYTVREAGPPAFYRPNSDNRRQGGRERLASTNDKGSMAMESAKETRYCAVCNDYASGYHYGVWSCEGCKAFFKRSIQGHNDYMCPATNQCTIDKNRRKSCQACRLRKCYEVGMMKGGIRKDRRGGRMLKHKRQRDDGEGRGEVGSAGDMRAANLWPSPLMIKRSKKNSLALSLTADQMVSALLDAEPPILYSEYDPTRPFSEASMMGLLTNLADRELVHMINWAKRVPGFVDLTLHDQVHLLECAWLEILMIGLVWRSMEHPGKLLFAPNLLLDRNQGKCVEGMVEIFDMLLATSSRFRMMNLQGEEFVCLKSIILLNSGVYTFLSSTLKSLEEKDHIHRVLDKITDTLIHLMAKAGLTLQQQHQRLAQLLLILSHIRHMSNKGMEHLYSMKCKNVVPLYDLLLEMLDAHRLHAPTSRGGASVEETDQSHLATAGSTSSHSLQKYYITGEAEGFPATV
Briefly: ER transcription assay (MCF7 cells), ERE-luciferase reporter. To be noted: MCF7 cells, ER reporter gene, 0.1 nM 17β estradiol, 24 hours; read-out: MCF7 IC50 (inflection point of the inhibition of transcription in MCF7 cells). In kind it is cell-based. An excerpt:
ER Transcription Assay (MCF7 Cells)
The ER transcription assay is a reporter assay that is based on the ability of ER to induce transcription from a luciferase reporter gene containing estrogen response elements (EREs) in the promoter/enhancer region. When the reporter gene is transfected in MCF7 cells (containing endogenous ER), transcription is reflected by the level of luciferase expression.
A day before transfection, cells are split into a T75 flask at a cell density of 300,000 cells/mL (10 mL total) and allowed to attach overnight in a humidified CO2 incubator at 37° C.
Approximately 20 ug DNA is mixed in OptiMEM (Invitrogen) to a total volume of 650 μL. Following incubation, the OptiMEM-DNA mixture is added to the OptiMEM-Lipofectin mix and incubated for 15 minutes at 37° C. The DNA-Lipofectin mixture is then added directly to the T75 flask and the flask is returned to the incubator.
After overnight incubation, compound is added to individual wells of a 96-well plate in a 10 μL volume of media at 10× concentration along with 17β estradiol whose final concentration is 0.1 nM. Normally, DMSO (used as a vehicle) is included to achieve a final concentration of 0.1% when added to the cells. Transfected cells are trypsinized, resuspended in DMEM/F12/10% charcoal-stripped serum and added to the 96-well plate at 25,000 cells/well in 90 μL of media. The plate is then returned to the incubator for 24 hours.
After incubation with compounds for 24 hours, Firefly and Renilla luciferase activities are measured to determine ER transcriptional activity. Media is removed from 96-well plates by decanting and blotting on paper towels.
One second total read time after a one second delay.
One second total read time after one second delay. If Firefly luciferase signal is high, Renilla assay must be done an hour after the Firefly assay due to incomplete squelching of Firefly signal.
The data describing the antagonist and degradation properties for the examples is compiled in table 10. The column titled MCF7 IC50 reports the inflection point of the inhibition of transcription in MCF7 cells as described above. Percentage ERα remaining reports the remaining ERα protein measured at 10 μM concentration of the ligand as described above. The column ERα IC50 reports the inflection point of the degradation in response to the ligand concentration.
For orientation: Reporter assays use an easily measured gene product as a stand-in for the process of interest.

A word on the IC50: it is the concentration at which inhibition is half-maximal. Consider `Cc1nnc(/C=C/c2ccc(Oc3c(-c4ccc(F)cc4C)sc4cc(O)ccc34)cc2)[nH]1` [Example 49, (E)-2-(4-fluoro-2-methylphenyl)-3-(4-(2-(5-methyl-4H-1,2,4-triazol-3-yl)vinyl)phenoxy)benzo[b]thiophen-6-ol], for which the IC50 was 0.041 µM.
Then `Cn1nnnc1/C=C/c1ccc(Oc2c(-c3ccc(F)cc3)sc3cc(O)ccc23)cc1` [Example 52, (E)-2-(4-fluorophenyl)-3-(4-(2-(1-methyl-1H-tetrazol-5-yl)vinyl)phenoxy)benzo [b]thiophen-6-ol], with 5.98 µM; and `CNC(=O)/C=C/c1ccc(Oc2c(-c3ccc(F)cc3)sc3cc(O)ccc23)cc1` [Example 67, (E)-3-(4-((2-(4-fluorophenyl)-6-hydroxybenzo[b]thiophen-3-yl)oxy)phenyl)-N-methylacrylamide], with 0.373 µM; and `COC(=O)/C=C/c1ccc(Oc2c(-c3ccc(O)cc3)sc3c(F)c(O)c(F)cc23)cc1` [Example 37, (E)-methyl 3-(4-((5,7-difluoro-6-hydroxy-2-(4-hydroxyphenyl)-benzo[b]thiophen-3-yl)oxy)phenyl)acrylate], with 0.041 µM.
Then `Cc1cccc(-c2sc3cc(O)ccc3c2Oc2ccc(/C=C/C(=O)O)cc2)c1C` [Example 13, (E)-3-(4-((2-(2,3-dimethylphenyl)-6-hydroxybenzo[b]-thiophen-3-yl)oxy)phenyl)-acrylic acid], with 0.151 µM; and `O=C(/C=C/c1ccc(Oc2c(-c3ccc(O)cc3)sc3cc(O)ccc23)cc1)NCCC(F)(F)F` [Example 31, (E)-3-(4-((6-hydroxy-2-(4-hydroxyphenyl)benzo[b]thiophen-3-yl)oxy)phenyl)-N-(3,3,3-trifluoropropyl)acrylamide], with 0.01 µM.
With `CCCn1nnnc1/C=C/c1ccc(Oc2c(-c3ccc(F)cc3C)sc3cc(O)ccc23)cc1` [Example 53, (E)-2-(4-fluoro-2-methylphenyl)-3-(4-(2-(1-propyl-1H-tetrazol-5-yl)vinyl)phenoxy) benzo[b]thiophen-6-ol] the figure was 0.32 µM.
On to `Cc1cc(C(F)(F)F)ccc1-c1sc2cc(O)ccc2c1Oc1ccc(/C=C/C(=O)O)cc1` [Example 10, (E)-3-(4-((6-hydroxy-2-(2-methyl-4-(tri-fluoromethyl)phenyl)-benzo[b]thiophen-3-yl)oxy)phenyl)acrylic acid], for which the IC50 turned out to be 0.207 µM.
Then `Cc1cc(/C=C/C(=O)O)ccc1Oc1c(-c2ccc(O)cc2)sc2cc(O)ccc12` [Example 57, (E)-3-(4-((6-hydroxy-2-(4-hydroxyphenyl)-benzo[b]thiophen-3-yl)oxy)-3-methylphenyl)acrylic acid], with 1.03 µM.
Then `CNC(=O)/C=C/c1ccc(Oc2c(-c3ccc(O)cc3)sc3cc(O)ccc23)cc1` [Example 66, (E)-3-(4-((6-hydroxy-2-(4-hydroxyphenyl)benzo-[b]thiophen-3-yl)oxy)phenyl)-N-methylacrylamide], with 0.053 µM.
For `CC(=O)c1ccccc1-c1sc2cc(O)ccc2c1Oc1ccc(/C=C/C(=O)O)cc1` [Example 19, (E)-3-(4-((2-(2-acetylphenyl)-6-hydroxybenzo[b]-thiophen-3-yl)oxy)phenyl)-acrylic acid], the concentration for half-maximal inhibition (IC50) stood at 0.218 µM.
Then `Cc1nnc(/C=C/c2ccc(Oc3c(-c4ccc(F)cc4C)sc4cc(O)ccc34)cc2)o1` [Example 46, (E)-2-(4-fluoro-2-methylphenyl)-3-(4-(2-(5-methyl-1,3,4-oxadiazol-2-yl)vinyl)phenoxy)benzo[b]thiophen-6-ol], with 0.108 µM; and `O=C(O)/C=C/c1ccc(Oc2c(-c3ccc(C(F)(F)F)cc3C(F)(F)F)sc3cc(O)ccc23)cc1` [Example 11, (E)-3-(4-((2-(2,4-bis(trifluoromethyl)-phenyl)-6-hydroxy-benzo[b]thiophen-3-yl)oxy)phenyl)-acrylic acid], with 0.053 µM; and `C/C(=C\c1ccc(Oc2c(-c3ccc(O)cc3)sc3cc(O)ccc23)cc1)C(=O)O` [Example 28, (E)-3-(4-((6-hydroxy-2-(4-hydroxyphenyl)benzo[b]thiophen-3-yl)oxy)phenyl)-2-methylacrylic acid], with 0.886 µM.
For the compound `Cc1c(O)cccc1-c1sc2cc(O)ccc2c1Oc1ccc(/C=C/C(=O)O)cc1` [Example 16, (E)-3-(4-((6-hydroxy-2-(3-hydroxy-2-methyl-phenyl)benzo[b]-thiophen-3-yl)oxy)phenyl)-acrylic acid], the IC50 came to 0.128 µM.
With `CCc1ccccc1-c1sc2cc(O)ccc2c1Oc1ccc(/C=C/C(=O)O)cc1` [Example 18, (E)-3-(4-((2-(2-ethylphenyl)-6-hydroxybenzo[b]-thiophen-3-yl)oxy)phenyl)-acrylic acid] the figure was 0.036 µM; with `Cc1cc(-c2sc3cc(O)ccc3c2Oc2ccc(/C=C/C(=O)O)cc2)ccc1O` [Example 61, (E)-3-(4-((6-hydroxy-2-(4-hydroxy-3-methylphenyl)benzo[b]-thiophen-3-yl)oxy)phenyl)acrylic acid], 0.327 µM.
Then `Cc1cc(F)ccc1-c1sc2cc(O)ccc2c1Oc1ccc(/C=C/c2nnnn2C)cc1` [Example 51, (E)-2-(4-fluoro-2-methylphenyl)-3-(4-(2-(1-methyl-1H-tetrazol-5-yl)vinyl)phenoxy)-benzo[b]thiophen-6-ol], with 0.061 µM.
As to `Cn1nnnc1/C=C/c1ccc(Oc2c(-c3ccc(O)cc3)sc3cc(O)ccc23)cc1` [Example 54, (E)-2-(4-hydroxyphenyl)-3-(4-(2-(1-methyl-1H-tetrazol-5-yl)vinyl)-phenoxy)benzo[b]thiophen-6-ol], the IC50 turned out to be 0.001 µM.
With `C/C(=C\C(=O)O)c1ccc(Oc2c(-c3ccc(O)cc3)sc3cc(O)ccc23)cc1` [Example 62, (E)-3-(4-((6-hydroxy-2-(4-hydroxyphenyl)-benzo[b]thiophen-3-yl)oxy)phenyl)but-2-enoic acid] the figure was 0.316 µM; with `COc1ccc(-c2sc3cc(O)ccc3c2Oc2ccc(/C=C/C(=O)O)cc2)cc1` [Example 26, (E)-3-(4-((6-hydroxy-2-(4-methoxyphenyl)benzo[b]thiophen-3-yl)oxy)phenyl)acrylic acid], 0.647 µM; with `CC(C)c1ccccc1-c1sc2cc(O)ccc2c1Oc1ccc(/C=C/C(=O)O)cc1` [Example 4, (E)-3-(4-((6-hydroxy-2-(2-isopropylphenyl)benzo[b]thiophen-3-yl)oxy)phenyl)acrylic acid], 0.006 µM.
With `Cn1nnc(/C=C/c2ccc(Oc3c(-c4ccc(O)cc4)sc4cc(O)ccc34)cc2)n1` [Example 55, (E)-2-(4-hydroxyphenyl)-3-(4-(2-(2-methyl-2H-tetrazol-5-yl)vinyl)-phenoxy)benzo[b]-thiophen-6-ol] the figure was 0.003 µM; with `O=C(O)/C=C/c1ccc(Oc2c(-c3ccccc3C(F)(F)F)sc3cc(O)ccc23)cc1` [Example 8, (E)-3-(4-((6-hydroxy-2-(2-(trifluoromethyl)-phenyl)benzo[b]-thiophen-3-yl)oxy)phenyl)-acrylic acid], 0.023 µM; with `CNC(=O)/C=C/c1ccc(Oc2c(-c3ccc(C(F)(F)F)cc3)sc3cc(O)ccc23)cc1` [Example 63, (E)-3-(4-((6-hydroxy-2-(4-(trifluoromethyl)-phenyl)benzo[b]thiophen-3-yl)oxy)phenyl)-N-methylacrylamide], 0.185 µM.
Then `O=C(O)/C=C/c1ccc(Oc2c(-c3ccc(C(F)(F)F)cc3)sc3cc(O)ccc23)cc1` [Example 3, (E)-3-(4-((6-hydroxy-2-(4-(trifluoromethyl)phenyl)benzo[b]thiophen-3-yl)oxy)phenyl)acrylic acid], with 0.941 µM.

The record behind these values is patent US8877801B2, “Compounds and compositions as selective estrogen receptor degraders” (Novartis AG, priority 2013, dated 2014).
